Results reported in ChEMBL document CHEMBL5528039, “Discovery of a Macrocyclic Influenza Cap-Dependent Endonuclease Inhibitor” (J Med Chem, 2024).
The source made the active and inactive calls. The calls are words filed in the database; no cut-off is given here.

Assays:
Influenza A virus [1] = test: Antiviral activity against Influenza A virus A/PR/8/34 (H1N1) infected in MDCK cells assessed as reduction in virus-induced cytopathic effect incubated for 5 days by CCK8 based microplate spectrophotometric analysis; type: functional, organism-based; conditions: 120 h; for EC90: time 5 day
[2] = Prodrug conversion in BALB/c mouse assessed as Baloxavir half-life at 5 mg/kg, po measured after 24 hrs by LC-MS/MS analysis; type: ADME, organism-based; conditions: in vivo
Influenza A virus [3] = test: Antiviral activity against Influenza A virus A/PR/8/34 infected in BALB/c mouse assessed as reduction in viral load in lungs at 5 mg/kg, po pre-infected with virus for 48 hrs followed by twice daily compound administration starting from day 2 and measured 1 hrs after last dose on day 5 by crystal violet staining based analysis; type: functional, organism-based; conditions: time 73.0 hrs
[4] = Prodrug conversion in BALB/c mouse assessed as Baloxavir AUC (0 to last) at 5 mg/kg, po measured after 24 hrs by LC-MS/MS analysis; type: ADME, organism-based; conditions: in vivo
[5] = Prodrug conversion in BALB/c mouse assessed as Baloxavir Cmax at 5 mg/kg, po measured after 24 hrs by LC-MS/MS analysis; type: ADME, organism-based; conditions: in vivo

Structure (SMILES)	EC50 (Influenza A virus [1])	EC90 (Influenza A virus [1])	t1/2 [2]	Activity (Influenza A virus [3])	AUClast [4]	Cmax [5]
CN1C(=O)c2c(O)c(=O)ccn2N2[C@H](c3ccccc3C#N)c3cc(F)c(F)cc3OCC[C@@H]12 (racemic)	> 500 nM	> 500 nM	–	–	–	–
CC(C)N1C(=O)c2c(O)c(=O)ccn2N2[C@H](c3ccccc3)c3ccccc3OCC[C@@H]12 (racemic)	53 nM	105 nM	–	–	–	–
CN1C(=O)c2c(O)c(=O)ccn2N2[C@H](c3ccc(F)c(F)c3)c3cc(F)c(F)cc3OCC[C@@H]12	25 nM	42 nM	–	–	–	–
CN1C(=O)c2c(O)c(=O)ccn2N2[C@H](c3ccccc3)c3ccccc3OCC[C@@H]12	14 nM	26 nM	–	–	–	–
COC(=O)OCOc1c2n(ccc1=O)N([C@@H]1c3ccccc3SCc3c1ccc(F)c3F)[C@@H]1COCCN1C2=O [BALOXAVIR MARBOXIL]	–	–	4.1 h	Active	880 nM·h	145 nM
O=C1c2c(O)c(=O)ccn2N2[C@H](c3ccccc3)c3ccccc3OCC[C@H]2N1C1CCC1 (racemic)	65 nM	120 nM	–	–	–	–
CN1C(=O)c2c(O)c(=O)ccn2N2[C@H](c3ccccc3Br)c3cc(F)c(F)cc3OCC[C@@H]12 (racemic)	11 nM	18 nM	–	–	–	–
